{"source": "patent US4021574A", "about": "“Antidandruff compositions containing 9-(4-lower alkoxy-2,3,6-trilower-alkylphenyl)-3,7-dimethyl-nona-2,4,6,8-tetraen-1-o ic acid lower alkyl amides” (Hoffmann-La Roche Inc., priority 1974, dated 1977)", "key": {"corneocytes on the scalp": {"tested_on": "corneocytes on the scalp", "assay": "Antidandruff activity: number of corneocytes on the scalp of male volunteers", "assay_type": "in vivo, human (male volunteers)", "description": "Dermatology, Vol. 53, p. 107 (1969). Each volunteer was treated by applying to the scalp 15 ml. of 0.1% by weight solution thereof daily for seven days. The number of corneocytes on the scalp of each subject was determined one day before treatment began and 1 day after termination of treatment."}, "LD50 s.c. in the mouse": {"assay": "LD50 s.c. in the mouse", "conditions": "in vivo, sc"}}, "data": [{"compound": "CCNC(=O)/C=C(C)/C=C/C=C(C)/C=C/c1c(C)cc(OC)c(C)c1C", "note": "[9-(4-methoxy-2,3,6-trimethylphenyl)-3,7-dimethyl-nona-2,4,6,8-tetraen-1-oic acid ethyl amide]", "values": [{"measurement": "Number of Corneocytes, one day post treatment", "setting": "corneocytes on the scalp; Volunteer No. 1, 15 ml of 0.1% by weight solution on scalp daily for seven days, one day pre-treatment: 2100", "value": 1400}, {"measurement": "Number of Corneocytes, one day post treatment", "setting": "corneocytes on the scalp; Volunteer No. 2, 15 ml of 0.1% by weight solution on scalp daily for seven days, one day pre-treatment: 5100", "value": 1500}, {"measurement": "Number of Corneocytes, one day post treatment", "setting": "corneocytes on the scalp; Volunteer No. 3, 15 ml of 0.1% by weight solution on scalp daily for seven days, one day pre-treatment: 3250", "value": 1600}, {"measurement": "Number of Corneocytes, one day post treatment", "setting": "corneocytes on the scalp; Volunteer No. 4, 15 ml of 0.1% by weight solution on scalp daily for seven days, one day pre-treatment: 1900", "value": 1600}, {"measurement": "decline in number of corneocytes (average)", "setting": "corneocytes on the scalp; four volunteers, one day post treatment vs one day pre-treatment, 15 ml of 0.1% by weight solution daily for seven days", "value": 50, "unit": "%"}, {"measurement": "Number of Corneocytes, one day post treatment, Total", "setting": "corneocytes on the scalp; total of four volunteers, 15 ml of 0.1% by weight solution on scalp daily for seven days, one day pre-treatment total: 12350", "value": 6100}, {"measurement": "LD50", "setting": "LD50 s.c. in the mouse", "value": "> 4000", "unit": "mg/kg"}]}]}
